Measurements published in PMC8502442 (Pharmacology Research & Perspectives, 2021).
Where two headings read alike, the source gives them in different places.

Assays:
[1] = Rat pharmacokinetics following an IV single bolus; assay type: in vivo; conditions: plasma, 1 mg/kg
[2] = rat microdialysis, brain versus blood; cited from earlier work
[3] = male, Sprague-Dawley, rat, intravenous, n = 3, mean ± SD
[4] = rat, cited from earlier work
parental MDCK cell = parental MDCK cell assay; cited from earlier work
[5] = humans; cited from earlier work
[6] = K puu liver, ratio of unbound liver concentration to unbound blood concentration at steady state
[7] = K puu muscle, ratio of unbound muscle concentration to unbound blood concentration at steady state

In the case of COc1ccc(CN(CCN(C)C)c2ccccn2)cc1 [Pyrilamine, pyrilamine], the Vd [1] is reported as 12.6 ± 1.6 L/kg, the clearance [1] is reported as 167 ± 24 mL/min/kg and the half-life [1] is reported as 2.16 ± 0.63 h. For the same compound, the “reported K puu,brain” value [2] was 2.50.
For C=C[C@H]1C[N@@]2CC[C@H]1C[C@@H]2[C@@H](O)c1ccnc2ccc(OC)cc12 [Quinidine, quinidine], the Kp [3, 6] was 0.677 ± 0.27 and the Kp [3, 7] was 1.75 ± 0.64.
For Cc1cc(=O)n(-c2ccccc2)n1C [Antipyrine], the “reported plasma CL” value ([4]; ref 24, 25, 26, 27) is listed as 4.80 mL/min/kg, the Kp [3, 6] is listed as 0.932 ± 0.178 and the Kp [3, 7] is listed as 0.771 ± 0.215.
For CC(C)NCC(O)COc1cccc2ccccc12 (stereo not shown) [Propranolol, propranolol], the P app (parental MDCK cell) is given as 11 ×10⁻⁶ cm/s and the “reported plasma CL” value ([4]; ref 18, 19, 20, 21, 22, 23) is given as 70 to 90 mL/min/kg.
In the case of NC(=O)N1c2ccccc2C=Cc2ccccc21 [Carbamazepine, carbamazepine], the P app (parental MDCK cell) is given as 27.5 ×10⁻⁶ cm/s, the “reported plasma CL” value ([4]; ref 24, 25, 26, 27) is given as 15.0 mL/min/kg and the “N-glucuronide as share of the administered dose” value ([4]; ref 34) is given as 20%–30%. It also gave a Kp [3, 6] of 0.913 ± 0.169 and a Kp [3, 7] of 1.02 ± 0.27.
CC12CC3CC(C)(C1)CC(N)(C3)C2 [Memantine, memantine] gave a Vd [1] of 7.36 ± 1.58 L/kg, a clearance [1] of 60.5 ± 9.9 mL/min/kg and a half-life [1] of 1.72 ± 0.03 h. The “reported K puu,brain” value [2] was 1.80, the “reported plasma CL” value ([4]; ref 18, 19, 20, 21, 22, 23) was 69 mL/min/kg and the “plasma CL” value ([4]; ref 47) was “about 45 ml/min/kg”. The “renal CL” value ([4]; ref 47) was “about 13 ml/min/kg”, the Kp [3, 6] was 1.56 and the Kp [3, 7] was 2.13.
Compound NCC1(CC(=O)O)CCCCC1 [Gabapentin, gabapentin] has a Vd [1] of 0.451 ± 0.001 L/kg, a clearance [1] of 1.53 ± 0.31 mL/min/kg and a half-life [1] of 3.58 ± 0.87 h. For the same compound, the Kp [3, 6] was 2.23 and the Kp [3, 7] was 1.39 ± 0.51.
For C[C@H]1O[C@@H](O[C@H]2[C@@H](O)C[C@H](O[C@H]3[C@@H](O)C[C@H](O[C@H]4CC[C@@]5(C)[C@H](CC[C@@H]6[C@@H]5C[C@@H](O)[C@]5(C)[C@@H](C7=CC(=O)OC7)CC[C@]65O)C4)O[C@@H]3C)O[C@@H]2C)C[C@H](O)[C@@H]1O [Digoxin, digoxin], the “reported plasma CL” value ([4]; ref 20, 26, 36, 37) is listed as 17.3 mL/min/kg, the “reported plasma CL” value ([4]; ref 24, 25, 26, 27) is listed as 17.3 mL/min/kg and the “non-renal CL (biliary excretion + hepatic metabolism) as share of total CL” value ([4]; ref 26) is listed as 70%–80%. The “renal CL as share of total CL” value ([4]; ref 26) was 20%–30%.
For COc1ccc([C@@H]2Sc3ccccc3N(CCN(C)C)C(=O)[C@@H]2OC(C)=O)cc1 [Diltiazem, diltiazem], the “reported plasma CL” value ([4]; ref 18, 19, 20, 21, 22, 23) is listed as 90 mL/min/kg.
For CC1COc2c(N3CCN(C)CC3)c(F)cc3c(=O)c(C(=O)O)cn1c23 (stereo not shown) [Ofloxacin, ofloxacin], the “reported plasma CL” value ([4]; ref 20, 26, 36, 37) is given as 27.5 mL/min/kg, the “non-renal CL (biliary excretion + metabolism) as share of total CL” value ([4]; ref 36) is given as “about 45%” and the “renal CL” value ([4]; ref 36) is given as “about 15 ml/min/kg”. For the same compound, the “renal CL as share of total CL” value ([4]; ref 36) was 55%, the “total CL” value ([4]; ref 36) was 27.5 mL/min/kg and the Kp [3, 6] was about 0.501. The Kp [3, 7] was 0.641 ± 0.206.
For CC(C)NCC(O)COc1ccc(CC(N)=O)cc1 (stereo not shown) [Atenolol, atenolol], the “share eliminated via the kidneys” value [5] is given as over 95%.
